Patent US6342219B1 (Board of Regents, The University of Texas System, priority 1999, dated 2002)

Assays:
[1] = test system: NCI-H358 NSCLC and HT29 colon adenocarcinoma xenografts and normal organs; experiment: In vivo localization to human tumor xenografts in mice; parameters: species or system mouse; key to Immunohistochemical Reactivity, Heart / Immunohistochemical Reactivity, Lung / Immunohistochemical Reactivity, Liver / Immunohistochemical Reactivity, Kidney / Immunohistochemical Reactivity, Intestine / Immunohistochemical Reactivity, Spleen / Immunohistochemical Reactivity, Tumor: −, negative; +/−, very weak; 1+, weak; 2+, moderate; 3+, strong; 4+, very strong
Description: Tumors were grown subcutaneously in immunocompromised mice (NCI-H358 NSCLC in nu/nu mice and HT29 colon adenocarcinoma in SCID mice) until the tumor volume was approximately 1 cm^3. 100μg of unlabeled antibody for studies using SCID mice, or 100 μg of biotinylated antibody for studies using nude mice, was injected intravenously via a tail vein. Twenty four hours later, the mice were anesthetized, perfused with PBS, and tumor and organs including heart, lungs, liver, kidneys, intestines and spleen were collected and snap frozen in liquid nitrogen.
The tumor and organs from each mouse were sectioned on a cryostat and stained for antibody immunohistochemically as above, with the exception that sections from the nude mice were developed using peroxidase labeled streptavidin-biotin complex (Dako, Carpinteria, Calif.) and the sections from the SCID mice were developed using two peroxidase-conjugated secondary antibodies, a goat anti-mouse IgG+IgM followed by a rabbit anti-goat Ig.
Twenty-four hours later, the mice were sacrificed, exsanguinated and the tumors and tissues were removed.

A673 rhabdomyosarcoma = experiment: In vivo tumor growth inhibition, newly implanted A673; parameters: species or system nu/nu mice
Description: (§1) FIG. 3A and FIG. 3B. […] FIG. 3A: 1×10^7 NCI-H358 NSCLC cells were injected subcutaneously into nu/nu mice on day 0. FIG. 3B: 5×10^6 A673 rhabdomyosarcoma cells were injected subcutaneously into nu/nu mice on day 0. Mice were injected i.p. with the indicated IgG on day 1 and 2 times/week thereafter. […] Tumors were measured 2-3 times per week. Mean and standard error is shown for the duration of the study in FIG. 3A, while data for the last day of the study (day 26) is shown in FIG. 3B.
(§2) Nu/nu mice were injected subcutaneously with either 1×10^7 NCI-H358 NSCLC cells or 5×10^6 A673 rhabdomyosarcoma cells on day 0. […] The tumors were then measured twice per wk for a period of approximately six wk for the NCI-H358 bearing mice and four wk for the A673 bearing mice. Tumor volume was calculated according to the formula: volume=L×W×H, where L=length, W=width, H=height.

[2] = test system: mouse VEGF in mouse 3LL Lewis Lung carcinoma tumor sections; experiment: Immunohistochemistry, endothelial cell staining, mouse 3LL tumor; assay type: binding; parameters: key: −, negative; +/−, very weak; 1+, weak; 2+, moderate; 3+, strong; 4+, very strong; conditions: acetone fixed frozen sections
Description: Tumors were snap frozen in liquid nitrogen and stored at −70° C. Frozen samples of tumor specimens from patients were obtained from the National Cancer Institute Cooperative Human Tissue Network (Southern Division, Birmingham, Ala.). Immunohistochemistry was performed as described by Burrows et al. (1995).
Tumors examined through immunohistochemistry were human tumors of various types from cancer patients, transplantable human tumor xenografts of various types grown in mice, guinea pig Line 10 tumor grown in guinea pig, and mouse 3LL tumor grown in mice (see legend to Table 3 for details).

[3] = test system: VEGF-mediated growth of ABAE cells; experiment: Endothelial cell growth assay (MTS); assay type: cell-based, bovine
Description: ABAE cells were grown in the presence of the various indicated antibodies and 0.5 nM VEGF. Growth after 4 days was determined calorimetrically by the enzymatic conversion of MTS (Owen's reagent) to a yellow formazan. […] Background was determined by growing cells without VEGF or antibody and was subtracted from the control and sample wells.
Adult bovine aortic endothelial (ABAE) cells were plated into 96-well tissue culture plates at 1500 cells/well and grown in the presence of 0.5 nM human VEGF with the addition of the various sample and control antibodies. Control wells received media with or without VEGF.
After 4 days of incubation, the cells were quantified by an MTS (3-(4,5-dimethylthiazol-2-yl)-5-(3-carboxylmethoxyphenyl)-2-(4-sulfophenyl)-2H-tetrazolium, inner salt) conversion assay, where MTS conversion to a formazan is proportional to cell number and can be followed by absorbance at 490 nm (Cell Titer 96 AQueous One Solution Cell Proliferation Assay, Promega, Madison, Wis.). The assay was performed according to the manufacturer's instructions.
Cell growth was estimated by subtracting the MTS conversion in cultures to which VEGF was not added. Results were expressed as a percentage of the MTS conversion in control cultures to which only VEGF was added (Buttke et al., 1993).

NCI-H358 NSCLC = experiment: In vivo tumor growth inhibition, newly implanted NCI-H358; parameters: species or system nu/nu mice
Description: as §1, §2

[4] = test system: denatured VEGF121 and VEGF165; experiment: Western blot analysis; assay type: binding, human; conditions: reducing and non-reducing conditions
Chain of denatured VEGF121 and VEGF165 (P15692 207-320 limits assumed): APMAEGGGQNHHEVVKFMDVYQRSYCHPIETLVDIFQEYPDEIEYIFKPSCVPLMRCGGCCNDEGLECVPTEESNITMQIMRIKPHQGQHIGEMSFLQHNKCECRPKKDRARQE
Description: The nitrocellulose membrane was blocked using Sea-Block PP82-41 (East Coast Biologics, Berwick, Me.), and probed with primary antibodies using a mini-blotter apparatus (Immunetics, Cambridge, Mass.). The membranes were developed after incubation with the appropriate peroxidase-conjugated secondary antibody by ECL enhanced chemiluminescence.
Western blot analyses of anti-VEGF antibodies were conducted by separating VEGF165 in the presence of 5% FCS using SDS-PAGE on a 12% gel and analyzing by a standard western blotting protocol using ECL detection. The primary antibodies were incubated with the nitrocellulose membrane using a multi-lane mini-blotter apparatus.

NCI-H358 tumors = experiment: Prolonged treatment of established NCI-H358 xenografts (FIG. 5A); assay type: in vivo, mice
Description: (§3) FIG. 5A and FIG. 5B. […] Treatments (T) were 100 μg of the IgG given i.p., except for the initial treatment that consisted of 500 μg of the IgG given i.v. Mean tumor volume along with the SEM is shown. At the end of the study (day 116), the mice were sacrificed and the tumors dissected out and weighed. […] The mice were treated every other day as indicated (T). […] Mean tumor volume along with the SE is shown.
In this study, spontaneous regressions were less pronounced. […] The 3E7 treated mice began treatment with a mean tumor volume of 428 mm^3 and rose to a volume of 1326 mm^3 after approximately 14 wk, an increase of […] in volume.

VEGFR2 (sFlk-1) = experiment: ELISA of VEGF binding to VEGFR2-coated wells; parameters: species or system mouse
Description: (§4) FIG. 2. […] The plate was then incubated with rabbit anti-VEGF (A-20, Santa Cruz Biotechnology, Inc.) at 1 μg/ml and developed using a peroxidase conjugated goat anti-rabbit antibody. Assays were performed in triplicate. Mean percent binding in the absence of antibody is shown, together with the standard deviation.
(§5) The assay was also performed by coating wells of a microtiter plate with either control or test IgG.

HT1080 fibrosarcoma = experiment: Treatment of established HT1080 xenografts (FIG. 5B); assay type: in vivo, nu/nu mice; conditions: 100 μg every two days
Description: as §3
(§6) Male nu/nu mice bearing subcutaneous NCI-H358 tumors or HT1080 fibrosarcoma 200-400 mm^3 in size were injected i.p. with test or control antibodies. The NCI-H358 bearing mice were treated with 100 μg of antibodies per injection three times a week during the first week and twice a week during the second and third week. The mice were then switched to 50 μg per injection every five days. The HT1080 bearing mice were treated with 100 μg of the indicated antibody or saline every other day throughout the duration of the study. In both studies, mice were sacrificed when their tumors reached 2500 mm^3 in size or earlier if tumors began to ulcerate.

NCI-H358 NSCLC tumors = experiment: Treatment of established NCI-H358 xenografts (FIG. 4); assay type: in vivo, nu/nu mice; conditions: 50-100 μg i.p. every 3-5 days, approximately 10 weeks
Description: FIG. 4. […] Mean tumor volume along with the SEM over 116 days is shown.
as §6
Doses were 50-100 μg every 3-5 days. […] In addition to measuring mean tumor volume (FIG. 4), photographs of the mice from each treatment group were also taken to show the differences in tumor size and appearance at the end of the study.

VEGFR1 (Flt-1/Fc) = experiment: ELISA of VEGF binding to VEGFR1-coated wells
Description: as §4, §5

[5] = 24 hours after i.v. antibody, 2C3 in NCI-H358 nu/nu mice, 3E7 and GV39M in HT29 SCID mice
[6] = 100 μg i.p. 2 times per wk from day 1, controls approximately 1000 mm^3

Substance: 2C3: anti-VEGF monoclonal antibody, IgG2a, k, produced by hybridoma ATCC PTA 1595; blocks VEGF binding to VEGFR2 but not VEGFR1 [Clone 2C3]
- Immunohistochemical Reactivity, Heart [1, 5]: −
- Immunohistochemical Reactivity, Intestine [1, 5]: −
- Immunohistochemical Reactivity, Kidney [1, 5]: −
- Immunohistochemical Reactivity, Liver [1, 5]: −
- Immunohistochemical Reactivity, Lung [1, 5]: −
- Immunohistochemical Reactivity, Spleen [1, 5]: −
- Immunohistochemical Reactivity, Tumor ([1]; 24 hours after i.v. antibody, 3E7 and GV39M bound tumor vascular endothelium, 2C3 tumor stroma): 3+
- In vivo tumor localization pattern ([1]; CT = connective tissue, BV = blood vessels): Moderate to strong
- In vivo localization in the HT29 human tumor model ([1]; HT29): localized strongly to the connective tissue
- In vivo normal mouse tissue localization ([1]; mouse, in vivo): None detectable
- Final tumor volume, A673 (A673 rhabdomyosarcoma; [6]): approximately 150 mm^3
- Effect of lower doses on the growth of A673 tumors (A673 rhabdomyosarcoma; 10 or 1 μg twice per wk): did slow the growth
- Endothelial Cell Staining, Mouse Tumor (3LL) [2]: −
- Blocks VEGF-induced proliferation [3]: Yes
- Tumor growth retardation in the NCI-H358 tumor model at the lower dose (NCI-H358 NSCLC; 10 μg dose): less marked
- Final tumor volume, NCI-H358 (NCI-H358 NSCLC; [6]): approximately 150 mm^3
- Reactivity with denatured VEGF on western blots [4]: react
- Mean tumor volume after approximately 14 wk of treatment (NCI-H358 tumors; 100 μg, at start 480 mm^3 (2C3), 428 mm^3 (3E7)): 84 mm^3
- Decrease in mean tumor volume (NCI-H358 tumors; after approximately 14 wk): approximately 80%
- Mean tumor weight at the end of the study (NCI-H358 tumors; day 116): 0.054 g
- Blocks VEGF from binding to VEGFR2 (VEGFR2 (sFlk-1)): Yes
- Effect on VEGF binding to VEGFR2 in ELISA (VEGFR2 (sFlk-1); 100-1000 fold excess): blocked
- Reduction in VEGF binding to VEGFR2 (VEGFR2 (sFlk-1); 100 fold molar excess over VEGF): about 74%
- VEGF bound to VEGFR2-coated wells, of the amount bound in the absence of antibody (VEGFR2 (sFlk-1); 1000-fold molar excess over VEGF (1 nM VEGF)): ~19%
- Reduction in VEGF binding to VEGFR2 (VEGFR2 (sFlk-1); 1000 fold molar excess over VEGF): about 81%
- Effect on growth of HT1080 tumors (HT1080 fibrosarcoma): arrested the growth of the tumors
- Mean tumor volume at the end of the study, of the initial mean tumor volume (NCI-H358 NSCLC tumors): 30%
- Blocks VEGF from binding to VEGFR1 (VEGFR1 (Flt-1/Fc)): No
